The results in this text go back to US11174268B2, “Benzenesulfonamide compouds and their use as therapeutic agents” (Xenon Pharmaceuticals Inc., priority 2016, dated 2021).

Broadly, the IC50 is the concentration that inhibits the measured activity by half.

Data set [1] has as its target T1, NaV1.6 (Homo sapiens (Human), UniProt Q9UQD0). Nature of the data set: Electrophysiological Assay (EP), patch voltage clamp, NaV1.6.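 Further: sodium current recorded at ambient temperature, channels held inactivated then briefly repolarized to −150 mV for 20 ms before a test pulse, control currents in 0.5% DMSO.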 The class given is cell-based. The following applies: HEK-293 cells, whole-cell patch clamp. A general note: In patch-clamp work, channel activity is measured electrically.
Data set [2] has as its target T1, NaV1.6. As to the kind of experiment: Sodium Influx Assay (Flux), NaV1.6.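 Further: Tetracycline-induced cells, compounds applied for one hour at room temperature with modulators holding channels open, IC50 from percent inhibition of sodium influx.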 The format is cell-based. The following applies: Trex HEK293 cells, ANG2 dye, inactivated state.
A further data set concerns the target NaV1.5 (Homo sapiens (Human), UniProt Q14524). Nature of the data set: Sodium Influx Assay (Flux), NaV1.5. As to conditions: read-out: Flux NaV1.5 IC50; Trex HEK293 cells, ANG2 dye, inactivated state.
Data set [3] addresses T2, NaV1.1 (Homo sapiens (Human), UniProt P35498). As to the kind of experiment: Electrophysiological Assay (EP), patch voltage clamp, NaV1.1.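 Further: sodium current block measured at ambient temperature, holding at fully inactivating potential, 20 ms repolarization to −150 mV before test pulse, versus 0.5% DMSO control currents.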 The format is cell-based. The following applies: HEK-293 cells, whole-cell patch clamp.
In data set [4] the target is T2, NaV1.1. As to the kind of experiment: Sodium Influx Assay (Flux), NaV1.1.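 Further: channels co-expressed with human β1 subunit and held open by modulators, cells exposed to compounds for one hour at room temperature, IC50 from percent inhibition of influx.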 The format is cell-based. As to conditions: Trex HEK293 cells, ANG2 dye, inactivated state.

Chain of NaV1.5 (Q14524 other isoform, or with tags, fused parts or gaps): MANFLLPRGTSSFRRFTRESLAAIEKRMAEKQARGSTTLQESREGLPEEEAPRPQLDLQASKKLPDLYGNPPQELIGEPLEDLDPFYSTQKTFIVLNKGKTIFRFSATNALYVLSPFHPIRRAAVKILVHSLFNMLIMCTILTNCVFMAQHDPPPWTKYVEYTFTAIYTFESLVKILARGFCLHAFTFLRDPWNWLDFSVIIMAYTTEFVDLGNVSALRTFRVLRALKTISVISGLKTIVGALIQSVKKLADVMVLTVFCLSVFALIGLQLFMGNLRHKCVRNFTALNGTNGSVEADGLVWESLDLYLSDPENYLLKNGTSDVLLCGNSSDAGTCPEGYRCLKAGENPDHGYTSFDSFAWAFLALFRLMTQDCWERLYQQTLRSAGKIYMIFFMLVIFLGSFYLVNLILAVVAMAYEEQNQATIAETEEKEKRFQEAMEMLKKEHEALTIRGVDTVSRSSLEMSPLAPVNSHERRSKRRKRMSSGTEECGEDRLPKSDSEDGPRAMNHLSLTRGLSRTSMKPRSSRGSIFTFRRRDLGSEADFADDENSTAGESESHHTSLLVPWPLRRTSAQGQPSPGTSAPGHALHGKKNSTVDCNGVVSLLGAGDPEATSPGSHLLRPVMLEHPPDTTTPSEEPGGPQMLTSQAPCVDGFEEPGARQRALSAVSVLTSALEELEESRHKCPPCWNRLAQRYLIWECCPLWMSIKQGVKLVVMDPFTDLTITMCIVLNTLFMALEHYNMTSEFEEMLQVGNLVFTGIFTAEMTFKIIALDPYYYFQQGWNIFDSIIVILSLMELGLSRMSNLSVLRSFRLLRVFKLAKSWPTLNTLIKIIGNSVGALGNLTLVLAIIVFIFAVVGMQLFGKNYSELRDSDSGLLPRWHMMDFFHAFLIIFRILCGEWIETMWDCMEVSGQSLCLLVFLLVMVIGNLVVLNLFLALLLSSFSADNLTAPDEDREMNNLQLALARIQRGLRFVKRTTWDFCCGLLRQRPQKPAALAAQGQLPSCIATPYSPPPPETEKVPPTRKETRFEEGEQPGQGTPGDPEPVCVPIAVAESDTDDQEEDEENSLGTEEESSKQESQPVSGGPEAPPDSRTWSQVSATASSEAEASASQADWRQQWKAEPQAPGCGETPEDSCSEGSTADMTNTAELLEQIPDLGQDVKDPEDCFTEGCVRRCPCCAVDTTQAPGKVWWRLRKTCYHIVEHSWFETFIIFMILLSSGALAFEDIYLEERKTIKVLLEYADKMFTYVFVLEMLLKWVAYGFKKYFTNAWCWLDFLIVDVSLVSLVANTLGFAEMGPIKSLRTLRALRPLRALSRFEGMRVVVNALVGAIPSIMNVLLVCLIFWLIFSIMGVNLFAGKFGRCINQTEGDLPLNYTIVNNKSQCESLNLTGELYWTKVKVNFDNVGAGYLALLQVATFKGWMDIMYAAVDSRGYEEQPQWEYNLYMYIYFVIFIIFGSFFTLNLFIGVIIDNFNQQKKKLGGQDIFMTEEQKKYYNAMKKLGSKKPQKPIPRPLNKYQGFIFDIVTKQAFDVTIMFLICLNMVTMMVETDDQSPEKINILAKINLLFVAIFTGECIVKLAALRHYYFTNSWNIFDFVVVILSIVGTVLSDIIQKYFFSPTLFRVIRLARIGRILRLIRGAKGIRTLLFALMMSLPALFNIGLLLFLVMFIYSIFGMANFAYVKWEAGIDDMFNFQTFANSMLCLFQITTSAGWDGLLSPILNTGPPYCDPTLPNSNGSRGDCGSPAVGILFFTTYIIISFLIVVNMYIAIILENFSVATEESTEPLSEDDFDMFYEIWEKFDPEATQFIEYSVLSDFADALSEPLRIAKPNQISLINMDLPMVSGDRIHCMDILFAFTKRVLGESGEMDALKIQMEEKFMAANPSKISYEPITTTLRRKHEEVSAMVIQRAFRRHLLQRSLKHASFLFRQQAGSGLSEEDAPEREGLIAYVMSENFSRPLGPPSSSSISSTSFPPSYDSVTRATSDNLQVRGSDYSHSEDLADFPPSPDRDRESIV
T1 sequence (Q9UQD0 whole entry): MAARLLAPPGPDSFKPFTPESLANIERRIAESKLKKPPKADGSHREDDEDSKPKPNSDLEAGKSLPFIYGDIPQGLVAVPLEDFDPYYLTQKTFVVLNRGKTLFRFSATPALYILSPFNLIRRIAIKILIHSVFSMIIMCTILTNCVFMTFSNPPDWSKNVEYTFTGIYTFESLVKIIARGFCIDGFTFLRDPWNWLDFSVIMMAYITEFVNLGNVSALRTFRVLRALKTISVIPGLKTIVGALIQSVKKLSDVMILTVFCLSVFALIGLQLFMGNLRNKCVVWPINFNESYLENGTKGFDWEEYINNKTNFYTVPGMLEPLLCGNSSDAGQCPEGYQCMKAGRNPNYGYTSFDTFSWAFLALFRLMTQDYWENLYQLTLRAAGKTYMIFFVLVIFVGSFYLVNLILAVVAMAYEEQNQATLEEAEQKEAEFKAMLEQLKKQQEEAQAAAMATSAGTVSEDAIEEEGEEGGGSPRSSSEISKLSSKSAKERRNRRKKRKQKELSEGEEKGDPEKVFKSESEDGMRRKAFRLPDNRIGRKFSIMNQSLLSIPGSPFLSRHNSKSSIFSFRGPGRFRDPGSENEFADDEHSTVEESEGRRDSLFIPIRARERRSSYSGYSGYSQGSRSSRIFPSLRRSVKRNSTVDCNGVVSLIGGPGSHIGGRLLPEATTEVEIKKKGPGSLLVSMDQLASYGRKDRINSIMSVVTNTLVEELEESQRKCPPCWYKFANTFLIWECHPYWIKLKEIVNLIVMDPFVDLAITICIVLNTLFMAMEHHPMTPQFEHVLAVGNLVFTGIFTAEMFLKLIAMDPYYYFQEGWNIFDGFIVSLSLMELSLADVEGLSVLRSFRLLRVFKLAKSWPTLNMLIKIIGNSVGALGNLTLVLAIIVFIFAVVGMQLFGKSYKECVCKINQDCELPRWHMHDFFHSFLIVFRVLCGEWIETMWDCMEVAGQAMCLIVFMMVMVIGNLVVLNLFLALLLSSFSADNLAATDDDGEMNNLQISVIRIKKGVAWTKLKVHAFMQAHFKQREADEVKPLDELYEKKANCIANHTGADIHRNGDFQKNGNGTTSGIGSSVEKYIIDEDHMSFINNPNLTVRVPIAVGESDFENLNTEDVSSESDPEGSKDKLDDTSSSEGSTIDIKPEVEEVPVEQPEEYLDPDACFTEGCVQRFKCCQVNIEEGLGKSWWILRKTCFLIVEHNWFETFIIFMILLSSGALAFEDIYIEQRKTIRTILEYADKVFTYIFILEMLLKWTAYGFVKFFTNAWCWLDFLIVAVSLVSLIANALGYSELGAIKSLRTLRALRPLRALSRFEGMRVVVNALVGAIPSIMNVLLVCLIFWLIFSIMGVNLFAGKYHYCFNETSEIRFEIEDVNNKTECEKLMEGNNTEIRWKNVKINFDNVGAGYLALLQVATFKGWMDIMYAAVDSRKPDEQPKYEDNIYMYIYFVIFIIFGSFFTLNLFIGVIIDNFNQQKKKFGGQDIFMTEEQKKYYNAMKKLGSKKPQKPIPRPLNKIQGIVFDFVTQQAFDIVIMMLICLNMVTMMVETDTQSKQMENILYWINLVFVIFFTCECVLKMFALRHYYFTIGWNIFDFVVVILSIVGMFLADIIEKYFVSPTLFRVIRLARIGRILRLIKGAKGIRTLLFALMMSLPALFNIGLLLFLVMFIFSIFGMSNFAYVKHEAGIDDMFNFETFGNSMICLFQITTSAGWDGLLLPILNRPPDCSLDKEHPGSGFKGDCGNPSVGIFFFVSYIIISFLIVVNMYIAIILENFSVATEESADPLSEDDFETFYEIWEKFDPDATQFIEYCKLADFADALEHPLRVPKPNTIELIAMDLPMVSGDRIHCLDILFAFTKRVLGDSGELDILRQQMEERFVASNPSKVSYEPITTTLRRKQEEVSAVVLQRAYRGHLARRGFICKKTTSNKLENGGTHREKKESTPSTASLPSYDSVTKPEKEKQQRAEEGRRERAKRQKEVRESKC

Take `C[C@H](Nc1cc(F)c(S(=O)(=O)Nc2nccs2)cc1Cl)c1ccccc1Cl` [Example 78, (S)-5-chloro-4-((1-(2-chlorophenyl)ethyl)amino)-2-fluoro-N-(thiazol-2-yl)benzenesulfonamide]: the IC50 was 15 nM on NaV1.6 [1]; 234 nM against NaV1.6 [2]; 7.01 µM on NaV1.5; 3.1 µM on NaV1.1 [3]; 4.17 µM at NaV1.1 [4].

Take `C[C@H](Nc1ccc(S(=O)(=O)Nc2nccs2)cc1Cl)c1ccccc1F` [Example 79, (S)-3-chloro-4-((1-(2-fluorophenyl)ethyl)amino)-N-(thiazol-2-yl)benzenesulfonamide]: the IC50 amounted to 39 nM against NaV1.6 [1]; 237 nM against NaV1.6 [2]; 2.55 µM on NaV1.5; 4.41 µM on NaV1.1 [3]; 1.54 µM at NaV1.1 [4].

Regarding `O=S(=O)(Nc1nccs1)c1cc(Cl)c(O[C@H](c2ccccc2)C(F)(F)F)cc1F` [Example 80, (R)-5-chloro-2-fluoro-N-(thiazol-2-yl)-4-(2,2,2-trifluoro-1-phenylethoxy)benzenesulfonamide], the IC50 against NaV1.6 [1] came out at 99 nM; at NaV1.6 [2] it was 1740 nM; at NaV1.5, 5.75 µM; on NaV1.1 [3], 10 µM; at NaV1.1 [4], 11.1 µM.

Turning to `CCC(Nc1ccc(S(=O)(=O)Nc2nccs2)cc1Cl)c1ccccn1` (stereo not shown) [Example 81, 3-chloro-4-((1-(pyridin-2-yl)propyl)amino)-N-(thiazol-2-yl)benzenesulfonamide], the IC50 stood at 143 nM against NaV1.6 [1]; 652 nM at NaV1.6 [2]; 30 µM on NaV1.5; 10 µM against NaV1.1 [3]; 22.5 µM at NaV1.1 [4].

Consider `C[C@H](Oc1ccc(S(=O)(=O)Nc2ncns2)cc1Cl)c1ccccc1` [Example 88, (S)-3-chloro-4-(1-phenylethoxy)-N-(1,2,4-thiadiazol-5-yl)benzenesulfonamide], for which the IC50 at NaV1.6 [1] is 184 nM; on NaV1.6 [2], 1040 nM; at NaV1.5, 18.2 µM; against NaV1.1 [3] it was 10 µM; on NaV1.1 [4] it was 30 µM.

As for `CC[C@H](Nc1cc(F)c(S(=O)(=O)Nc2cscn2)cc1Cl)c1ccccc1` [Example 89, (S)-5-chloro-2-fluoro-4-((1-phenylpropyl)amino)-N-(thiazol-4-yl)benzenesulfonamide], the IC50 on NaV1.6 [1] came to 239 nM; against NaV1.6 [2] it was 948 nM; at NaV1.5, 9.09 µM; against NaV1.1 [3], 10 µM; at NaV1.1 [4] it was 3.85 µM.

Regarding `O=S(=O)(Nc1nccs1)c1ccc(N[C@@H](CO)c2ccccc2)c(Cl)c1` [Example 91, (R)-3-chloro-4-((2-hydroxy-1-phenylethyl)amino)-N-(thiazol-2-yl)benzenesulfonamide], the IC50 on NaV1.6 [1] was determined as 341 nM; on NaV1.6 [2], 927 nM; at NaV1.5, 30 µM; against NaV1.1 [3] it was 10 µM; against NaV1.1 [4] it was 10.7 µM.

Turning to `O=S(=O)(Nc1cscn1)c1cc(Cl)c(NCc2cccc3ccncc23)cc1F` [Example 96, 5-chloro-2-fluoro-4-((isoquinolin-8-ylmethyl)amino)-N-(thiazol-4-yl)benzenesulfonamide 2,2,2-trifluoroacetate], the IC50 was 98 nM against NaV1.6 [1]; 239 nM against NaV1.6 [2]; 16 µM at NaV1.5; 10 µM on NaV1.1 [3]; 12.6 µM against NaV1.1 [4].

With `C[C@H](Oc1cc(F)c(S(=O)(=O)Nc2cscn2)cc1Cl)c1ccccc1F` [Example 101, (S)-5-chloro-2-fluoro-4-(1-(2-fluorophenyl)ethoxy)-N-(thiazol-4-yl)benzenesulfonamide], the IC50 on NaV1.6 [1] stood at 462 nM; against NaV1.6 [2] it was 814 nM; at NaV1.5 it was 4.66 µM; on NaV1.1 [3], 10 µM; against NaV1.1 [4], 9.57 µM.

`O=S(=O)(Nc1nccs1)c1ccc(NC2(c3ccccc3)COC2)c(Cl)c1` [Example 103, 3-chloro-4-((3-phenyloxetan-3-yl)amino)-N-(thiazol-2-yl)benzenesulfonamide]: the IC50 against NaV1.6 [1] was determined as 796 nM; at NaV1.6 [2] it was 2910 nM; at NaV1.5, 28.8 µM; on NaV1.1 [3] it was 10 µM; at NaV1.1 [4] it was 16.6 µM.

For the compound `O=S(=O)(Nc1nccs1)c1ccc(NC2(c3ccccc3)CCC2)c(Cl)c1` [Example 104, 3-chloro-4-((1-phenylcyclobutyl)amino)-N-(thiazol-2-yl)benzenesulfonamide], the IC50 against NaV1.6 [1] was found to be 153 nM; at NaV1.6 [2], 582 nM; at NaV1.5, 6.29 µM; against NaV1.1 [3] it was 4.51 µM; at NaV1.1 [4] it was 4.43 µM.

Turning to `O=S(=O)(Nc1nccs1)c1cc(Cl)c(NC2(c3ccccc3)CCC2)cc1F` [Example 105, 5-chloro-2-fluoro-4-((1-phenylcyclobutyl)amino)-N-(thiazol-2-yl)benzenesulfonamide], the IC50 was found to be 27 nM against NaV1.6 [1]; 564 nM against NaV1.6 [2]; 10.6 µM at NaV1.5; 3.6 µM against NaV1.1 [3]; 3.73 µM against NaV1.1 [4].

Regarding `O=S(=O)(Nc1nccs1)c1cc(Cl)c(NC2(c3ccccc3F)CCC2)cc1F` [Example 107, 5-chloro-2-fluoro-4-((1-(2-fluorophenyl)cyclobutyl)amino)-N-(thiazol-2-yl)benzenesulfonamide], the IC50 against NaV1.6 [1] is 138 nM; on NaV1.6 [2], 656 nM; at NaV1.5 it was 7.4 µM; at NaV1.1 [3], 8.62 µM; on NaV1.1 [4], 10.3 µM.

For `C[C@H](Oc1cc(F)c(S(=O)(=O)Nc2nccs2)cc1Cl)c1cccc(F)c1` [Example 114, (S)-5-chloro-2-fluoro-4-(1-(3-fluorophenyl)ethoxy)-N-(thiazol-2-yl)benzenesulfonamide], the IC50 at NaV1.6 [1] stood at 255 nM; against NaV1.6 [2], 977 nM; on NaV1.5 it was 4.64 µM; on NaV1.1 [3] it was 10 µM; on NaV1.1 [4], 5.05 µM.

With `C[C@H](Oc1cc(F)c(S(=O)(=O)Nc2nccs2)cc1Cl)c1ccccc1` [Example 115, (S)-5-chloro-2-fluoro-4-(1-phenylethoxy)-N-(thiazol-2-yl)benzenesulfonamide], the IC50 against NaV1.6 [1] came out at 135 nM; against NaV1.6 [2], 1390 nM; on NaV1.5 it was 9.93 µM; at NaV1.1 [3], 10 µM; against NaV1.1 [4] it was 17.5 µM.

`C[C@H](Oc1cc(F)c(S(=O)(=O)Nc2nccs2)cc1Cl)c1ccccc1Cl` [Example 117, (S)-5-chloro-4-(1-(2-chlorophenyl)ethoxy)-2-fluoro-N-(thiazol-2-yl)benzenesulfonamide]: the IC50 against NaV1.6 [1] was determined as 55 nM; at NaV1.6 [2] it was 530 nM; at NaV1.5 it was 6.22 µM; at NaV1.1 [3], 6.78 µM; on NaV1.1 [4] it was 5.89 µM.

`C[C@H](Oc1cc(F)c(S(=O)(=O)Nc2nccs2)cc1Cl)c1c(F)cccc1F` [Example 119, (S)-5-chloro-4-(1-(2,6-difluorophenyl)ethoxy)-2-fluoro-N-(thiazol-2-yl)benzenesulfonamide]: the IC50 against NaV1.6 [1] was found to be 23 nM; against NaV1.6 [2], 310 nM; at NaV1.5 it was 1.82 µM; at NaV1.1 [3], 8.94 µM; on NaV1.1 [4], 5.72 µM.

Consider `C[C@H](Oc1cc(F)c(S(=O)(=O)Nc2cscn2)cc1Cl)c1c(F)cccc1F` [Example 120, (S)-5-chloro-4-(1-(2,6-difluorophenyl)ethoxy)-2-fluoro-N-(thiazol-4-yl)benzenesulfonamide], for which the IC50 was 717 nM at NaV1.6 [1]; 1390 nM against NaV1.6 [2]; 2.42 µM on NaV1.5; 10 µM on NaV1.1 [3]; 24.3 µM on NaV1.1 [4].

On to `O=S(=O)(Nc1nccs1)c1cc(Cl)c(OCc2ccccc2F)cc1F` [Example 122, 5-chloro-2-fluoro-4-((2-fluorobenzyl)oxy)-N-(thiazol-2-yl)benzenesulfonamide], for which the IC50 is 121 nM at NaV1.6 [1]; 1650 nM against NaV1.6 [2]; 30 µM on NaV1.5; 10 µM on NaV1.1 [3]; 30 µM against NaV1.1 [4].

Take `C[C@H](Oc1cc(F)c(S(=O)(=O)Nc2cscn2)cc1Cl)c1ccccc1Cl` [Example 123, (S)-5-chloro-4-(1-(2-chlorophenyl)ethoxy)-2-fluoro-N-(thiazol-4-yl)benzenesulfonamide]: the IC50 at NaV1.6 [1] was determined as 716 nM; against NaV1.6 [2], 1170 nM; at NaV1.5 it was 2.15 µM; at NaV1.1 [3] it was 10 µM; at NaV1.1 [4] it was 5.78 µM.

`O=S(=O)(Nc1cscn1)c1c(F)cc(NCc2c(Cl)cccc2CN2CC(F)C2)cc1F` [Example 129, 4-((2-chloro-6-((3-fluoroazetidin-1-yl)methyl)benzyl)amino)-2,6-difluoro-N-(thiazol-4-yl)benzenesulfonamide]: the IC50 stood at 252 nM against NaV1.6 [1]; 322 nM against NaV1.6 [2]; 30 µM at NaV1.5; 10 µM against NaV1.1 [3]; 4.24 µM against NaV1.1 [4].

For `Cc1c(NCc2c(F)cccc2CN2CC(F)C2)ccc(S(=O)(=O)Nc2cscn2)c1F` [Example 130, 2-fluoro-4-((2-fluoro-6-((3-fluoroazetidin-1-yl)methyl)benzyl)amino)-3-methyl-N-(thiazol-4-yl)benzenesulfonamide], the IC50 against NaV1.6 [1] was 100 nM; on NaV1.6 [2], 307 nM; on NaV1.5, 17.7 µM; on NaV1.1 [3], 10 µM; against NaV1.1 [4] it was 11.7 µM.

Regarding `O=S(=O)(Nc1cccc(F)n1)c1cc(Cl)c(NCc2c(F)ccc(F)c2CN2CCC2)cc1F` [Example 131, 4-((2-(azetidin-1-ylmethyl)-3,6-difluorobenzyl)amino)-5-chloro-2-fluoro-N-(6-fluoropyridin-2-yl)benzenesulfonamide], the IC50 amounted to 126 nM on NaV1.6 [1]; 376 nM on NaV1.6 [2]; 10.9 µM at NaV1.5; 10 µM at NaV1.1 [3]; 8.33 µM against NaV1.1 [4].
